Values of other authors in PubChem BioAssay AID1259409 (Chemical Carcinogenesis Research Information System (CCRIS), 2018).

Test system: rodent chemically induced tumor inhibition, incidence and multiplicity
Assay: CCRIS tumor inhibitor studies
Conditions: Carcinogen: N-NITROSOBIS(2-OXYPROPYL)AMINE, 60599-38-4, Route [Inhibitor]: ORAL, Species: HAMSTER, Promoter: NONE USED

CCNC(=O)/C=C(C)/C=C/C=C(C)/C=C/C1=C(C)CCCC1(C)C
tumour outcome (control, treated, inhibition, significance) (Dose [Inhibitor]: 0.05, 0.1 OR 0.2 MILLIMOLAR/KG DIET FOR 32 WK STARTING 1 WK AFTER THE CARCINOGEN DOSE (STUDY DURATION: 33 WK), Strain/Sex: SYRIAN/FEMALE, Target Tissue: Type of Lesion: GALL BLADDER: ADENOMA, Dose [Carcinogen]: 40 MG/KG ONCE): 6/10 (60%), 2/23 (9%), 85%, p<0.025 | tumour outcome (control, treated, inhibition, significance) (Dose [Inhibitor]: 0.05, 0.1 OR 0.2 MILLIMOLAR/KG DIET FOR 32 WK STARTING 1 WK AFTER THE CARCINOGEN DOSE (STUDY DURATION: 33 WK), Strain/Sex: SYRIAN/FEMALE, Target Tissue: Type of Lesion: LIVER: ADENOMA, Dose [Carcinogen]: 40 MG/KG ONCE): 6/10 (60%), 13/23 (59%), 2%, not significant | tumour outcome (control, treated, inhibition, significance) (Dose [Inhibitor]: 0.05, 0.1 OR 0.2 MILLIMOLAR/KG DIET FOR 32 WK STARTING 1 WK AFTER THE CARCINOGEN DOSE (STUDY DURATION: 33 WK), Strain/Sex: SYRIAN/FEMALE, Target Tissue: Type of Lesion: LUNG: ADENOMA, Dose [Carcinogen]: 40 MG/KG ONCE): 3/10 (30%), 9/23 (41%), -37%, not significant | tumour outcome (control, treated, inhibition, significance) (Dose [Inhibitor]: 0.05, 0.1 OR 0.2 MILLIMOLAR/KG DIET FOR 32 WK STARTING 1 WK AFTER THE CARCINOGEN DOSE (STUDY DURATION: 33 WK), Strain/Sex: SYRIAN/FEMALE, Target Tissue: Type of Lesion: PANCREAS: ADENOMA, Dose [Carcinogen]: 40 MG/KG ONCE): 10/10 (100%), 22/23 (96%), 4%, not significant | tumour outcome (control, treated, inhibition, significance) (Dose [Inhibitor]: 0.05, 0.1 OR 0.2 MILLIMOLAR/KG DIET FOR 32 WK STARTING 1 WK AFTER THE CARCINOGEN DOSE (STUDY DURATION: 33 WK), Strain/Sex: SYRIAN/FEMALE, Target Tissue: Type of Lesion: PANCREAS: CARCINOMA, Dose [Carcinogen]: 40 MG/KG ONCE): 4/10 (40%), 10/23 (43%), -8%, not significant | tumour outcome (control, treated, inhibition, significance) (Dose [Inhibitor]: 0.05, 0.1 OR 0.2 MILLIMOLAR/KG DIET FOR 32 WK STARTING 1 WK AFTER THE CARCINOGEN DOSE (STUDY DURATION: 33 WK), Strain/Sex: SYRIAN/MALE, Target Tissue: Type of Lesion: COMMON DUCT: ADENOMA, Dose [Carcinogen]: 40 MG/KG ONCE): 4/12 (33%), 14/26 (54%), -64%, not significant | tumour outcome (control, treated, inhibition, significance) (Dose [Inhibitor]: 0.05, 0.1 OR 0.2 MILLIMOLAR/KG DIET FOR 32 WK STARTING 1 WK AFTER THE CARCINOGEN DOSE (STUDY DURATION: 33 WK), Strain/Sex: SYRIAN/MALE, Target Tissue: Type of Lesion: GALL BLADDER: ADENOMA, Dose [Carcinogen]: 40 MG/KG ONCE): 3/12 (25%), 10/26 (39%), -56%, not significant | tumour outcome (control, treated, inhibition, significance) (Dose [Inhibitor]: 0.05, 0.1 OR 0.2 MILLIMOLAR/KG DIET FOR 32 WK STARTING 1 WK AFTER THE CARCINOGEN DOSE (STUDY DURATION: 33 WK), Strain/Sex: SYRIAN/MALE, Target Tissue: Type of Lesion: LIVER: ADENOMA, Dose [Carcinogen]: 40 MG/KG ONCE): 6/12 (50%), 12/26 (46%), 8%, not significant | tumour outcome (control, treated, inhibition, significance) (Dose [Inhibitor]: 0.05, 0.1 OR 0.2 MILLIMOLAR/KG DIET FOR 32 WK STARTING 1 WK AFTER THE CARCINOGEN DOSE (STUDY DURATION: 33 WK), Strain/Sex: SYRIAN/MALE, Target Tissue: Type of Lesion: LUNG: ADENOMA, Dose [Carcinogen]: 40 MG/KG ONCE): 1/12 (8%), 2/26 (8%), 0%, not significant | tumour outcome (control, treated, inhibition, significance) (Dose [Inhibitor]: 0.05, 0.1 OR 0.2 MILLIMOLAR/KG DIET FOR 32 WK STARTING 1 WK AFTER THE CARCINOGENDOSE (STUDY DURATION: 33 WK), Strain/Sex: SYRIAN/MALE, Target Tissue: Type of Lesion: PANCREAS: ADENOMA, Dose [Carcinogen]: 40 MG/KG ONCE): 12/12 (100%), 26/26 (100%), 0%, not significant | tumour outcome (control, treated, inhibition, significance) (Dose [Inhibitor]: 0.05, 0.1 OR 0.2 MILLIMOLAR/KG DIET FOR 32 WK STARTING 1 WK AFTER THE CARCINOGENDOSE (STUDY DURATION: 33 WK), Strain/Sex: SYRIAN/MALE, Target Tissue: Type of Lesion: PANCREAS: CARCINOMA, Dose [Carcinogen]: 40 MG/KG ONCE): 6/12 (50%), 13/26 (50%), 0%, not significant | tumour outcome (control, treated, inhibition, significance) (Dose [Inhibitor]: 0.05, 0.1 OR 0.2 MM/KG DIET FOR 32 WK STARTING 1 WK AFTER THE CARCINOGEN DOSE (STUDY DURATION: 33 WK), Strain/Sex: SYRIAN/FEMALE, Target Tissue: Type of Lesion: PANCREAS: ADENOCARCINOMA, Dose [Carcinogen]: 40 MG/KG ONCE): 2/10 (20%), 2/23 (9%), 55%, not significant | tumour outcome (control, treated, inhibition, significance) (Dose [Inhibitor]: 0.05, 0.1 OR 0.2 MM/KG DIET FOR 32 WK STARTING 1 WK AFTER THE CARCINOGEN DOSE (STUDY DURATION: 33 WK), Strain/Sex: SYRIAN/FEMALE, Target Tissue: Type of Lesion: PANCREAS: CARCINOMA IN SITU, Dose [Carcinogen]: 40 MG/KG, ONCE, ONE WK PRIOR TO START OF AGENT TREATMENT): 1/10 (10%), 7/23 (30%), -200%, not significant | tumour outcome (control, treated, inhibition, significance) (Dose [Inhibitor]: 0.05, 0.1 OR 0.2 MM/KG DIET FOR 32 WK STARTING 1 WK AFTER THE CARCINOGEN DOSE (STUDY DURATION: 33 WK), Strain/Sex: SYRIAN/FEMALE, Target Tissue: Type of Lesion: PANCREAS: INTRADUCTAL CARCINOMA, Dose [Carcinogen]: 40 MG/KG, ONCE, ONE WK PRIOR TO START OF AGENT TREATMENT): 2/10 (20%), 3/23 (9%), 55%, not significant | tumour outcome (control, treated, inhibition, significance) (Dose [Inhibitor]: 0.05, 0.1 OR 0.2 MM/KG DIET FOR 32 WK STARTING 1 WK AFTER THE CARCINOGEN DOSE (STUDY DURATION: 33 WK), Strain/Sex: SYRIAN/MALE, Target Tissue: Type of Lesion: PANCREAS: ADENOCARCINOMA, Dose [Carcinogen]: 40 MG/KG, ONCE, ONE WK PRIOR TO START OF AGENT TREATMENT): 1/12 (8%), 2/26 (8%), 0%, not significant | tumour outcome (control, treated, inhibition, significance) (Dose [Inhibitor]: 0.05, 0.1 OR 0.2 MM/KG DIET FOR 32 WK STARTING 1 WK AFTER THE CARCINOGEN DOSE (STUDY DURATION: 33 WK), Strain/Sex: SYRIAN/MALE, Target Tissue: Type of Lesion: PANCREAS: CARCINOMA IN SITU, Dose [Carcinogen]: 40 MG/KG, ONCE, ONE WK PRIOR TO START OF AGENT TREATMENT): 3/12 (25%), 8/26 (31%), -24%, not significant | tumour outcome (control, treated, inhibition, significance) (Dose [Inhibitor]: 0.05, 0.1 OR 0.2 MM/KG DIET FOR 32 WK STARTING 1 WK AFTER THE CARCINOGEN DOSE (STUDY DURATION: 33 WK), Strain/Sex: SYRIAN/MALE, Target Tissue: Type of Lesion: PANCREAS: INTRADUCTAL CARCINOMA, Dose [Carcinogen]: 40 MG/KG, ONCE, ONE WK PRIOR TO START OF AGENT TREATMENT): 2/12 (17%), 3/26 (12%), 29%, not significant | tumour outcome (control, treated, inhibition, significance) (Dose [Inhibitor]: 0.05, 0.1 OR 0.2 MM/KG DIET FOR 32 WK STARTING 1 WK AFTER THE CARCINOGEN DOSE (STUDY DURATION: 33 WK), Strain/Sex: SYRIAN/MALE, Target Tissue: Type of Lesion: PANCREAS: MICROCARCINOMA, Dose [Carcinogen]: 40 MG/KG, ONCE, ONE WK PRIOR TO START OF AGENT TREATMENT): 3/12 (25%), 4/26 (15%), 40%, not significant
